Patent US10913774B2, “Cyclic peptide binder against oncogenic K-Ras” (California Institute of Technology, priority 2015, dated 2021)
“Also recorded” adds a separate entry of the source.

What was measured:
K-Ras G12D [1] = biological target: T1, K-Ras G12D (Homo sapiens, UniProt P01116, G12D); assay: Western blot of K-Ras G12D protein levels in Panc 08.13 cancer cells after peptide treatment; assay type: cell-based; settings: Panc 08.13 cells (homozygous K-Ras G12D), 30 minutes treatment, 0.3 mM
From the text: Example 5. Degradation of K-Ras G12D using Cyclic Peptides. […] Proteolysis-targeting chimeras (PROTACs) using Hif and other proteins are described in Toure and Crews, 2016, Angew. Chem. Int. Ed, 55:2-10, the entire contents of which are incorporated herein by reference. The 7b-Hif PROTAC was further conjugated with the HIV-TAT cell-penetrating peptide […] (SEQ ID NO: 24).
Cell culture. Panc 08.13 cell lines were purchased from American Type Culture collection and cultured as specified by the provider.
Immunoblotting. Western blots were performed according to standard protocols. Briefly, cells were lysed with cell lysis buffer (Cell Signaling Technology) containing protease and phosphatase inhibitors (Cell Signaling Technology). Cell lysates were quantified with a Bradford protein assay (Thermo Scientific) and prepared for gel electrophoresis in Laemmli sample buffer and reducing agent. 20 μg of cell lysate were added to precast polyacrylamide gels (Bio-Rad) and proteins were separated by electrophoresis followed by transfer to PVDF membrane. Membranes were then blocked and probed with an anti-Ras or anti-Tubulin primary antibody followed by horseradish peroxidase-conjugated secondary antibody (Cell Signaling Technology). The bands were visualized by chemiluminescence (Thermo Scientific).

K-Ras G12D [2] = biological target: T1, K-Ras G12D; assay: ELISA binding assay of biotinylated cyclic peptides to K-Ras G12D
Description: For ELISA assays, 1 μM of the biotinylated hit peptides were first immobilized onto Neutravidin ELISA plates (Pierce) for 2 hours at room temperature in binding buffer (TBST with 0.1% BSA). […] After washing three times with TBST the plate was then treated with a 1:1000 dilution of the anti-RAS rabbit mAb (Cell Signaling Technology) in binding buffer for thirty minutes, washed three times with TBST, incubated with anti-Rabbit-HRP secondary antibody (Cell Signaling Technology) for thirty minutes and developed with TMB substrate (KPL) for five to ten minutes. The absorbance of samples at 450 nm wavelength was measured using a spectrophotometer.

Compound	levels of K-Ras G12D protein by Western blot (K-Ras G12D [1])	binding to K-Ras G12D in ELISA (absorbance units), result in words (K-Ras G12D [2])
CC(C)C[C@@H]1NC(=O)[C@@H](N)Cc2cn(nn2)CCCC[C@@H](C(=O)NCCCOCCOCCOCCCNC(=O)CCCC[C@@H]2SC[C@@H]3NC(=O)N[C@@H]32)NC(=O)[C@H](CCCNC(=N)N)NC(=O)[C@@H]2CCCN2C(=O)CNC(=O)[C@H](CCCNC(=N)N)NC1=O [7b5, Pra-LRGPR-Az4-PEG-Biotin]	induce proteasomal degradation of K-Ras G12D	–
CC(C)C[C@@H]1NC(=O)[C@@H](N)Cc2cn(nn2)CCCC[C@@H](C(=O)NCCCOCCOCCOCCCNC(=O)CCCC[C@@H]2SC[C@@H]3NC(=O)N[C@@H]32)NC(=O)[C@H](CCCNC(=N)N)NC(=O)[C@H](CC(=O)O)NC(=O)CNC(=O)[C@H](CCCNC(=N)N)NC1=O [7b, Pra-LRGDR-Az4-PEG-Biotin]	–	strongest binding fluorescence; also recorded: highest affinity
